We go through one compound from US10203334B2, “Methods and compositions related to nucleic acid binding assays” (Nubad, LLC, priority 2012, dated 2019).

Holding throughout (type): binding
The test system of assay [1] is d(CCCCGGGG)2. The assay is described as follows: Fluorescein-neomycin fluorescence quenching by DNA duplex. The note with it: 1 μM probe, 10 mM SC, 0.5 mM EDTA, pH 6.8. As for the experimental part: (§1) It has been shown that the fluorescence of a fluorescein-neomycin is quenched when bound to a nucleic acid target. In continued efforts to expand the applications of the fluorescein-neomycin conjugate, a fluorescence quenching study was performed to determine if the quenching of fluorescein-neomycin in the presence of DNA is representative of the neomycin affinity. Previous studies using the duplexes d(GGGGCCCC)2 and d(CCCCGGGG)2 have shown the binding is lower for d(CCCCGGGG)2. This has been shown from the ITC derived binding constants, FID studies, and electrostatic potential studies. […] For this reason the fluorescence quenching of fluorescein-neomycin with d(GGGGCCCC)2 and d(CCCCGGGG)2 was performed at three different buffer salt concentrations. […] Results from this study show here that the fluorescein-neomycin quenching can be applied to screening the 256 GC rich hairpins to identify which sequence neomycin has the highest affinity. Table 2 represents the change in fluorescence (%) values of fluorescein-neomycin with 1rdr d(GGGGCCCC)2 and d(CCCCGGGG)2 in 3 different buffer salt concentrations and the ratio between the change in fluorescence (%) values of F-neo with d(CCCCGGGG)2 compared to d(GGGGCCCC)2. Fluorescein-neomycin=1 μM, Buffer=10 mM SC, 0.5 mM EDTA, and either 50 mM NaCl, 100 mM NaCl, or 150 mM NaCl (pH=6.8). Experiment was performed in triplicate and the results were also polted in FIG. 10 showing the change in fluorescence (%) of fluorescein-neomycin with 1 equivalent d(GGGGCCCC)2 and d(CCCCGGGG)2 in 3 different buffer salt concentrations.

Assay [2] concerns d(GGGGCCCC)2. The description is as above. The following applies: 1 μM probe, 10 mM SC, 0.5 mM EDTA, pH 6.8. The method, then:
as §1

Assay [3] has as its system 13 different nucleic acid structures. As to the kind of experiment: Competition dialysis, whole panel. The note with it: Na^+ concentration increases from 100 to 200 mM. The source says:
Disclosed is the use of fluorescent aminosugar probes such as F-neo (42a) to probe a variety of nucleic acid targets. Competition dialysis was used as a nucleic acid screening technique to illustrate the binding of F-neo (42a) to different nucleic acid structures.
Competition dialysis studies using a fluorescein-neomycin conjugate (F-neo (42a)). […] Comparative binding of F-neo (42a) to 13 different nucleic acid structures was examined which included single strand nucleic acids [poly(dT), poly(A), poly(U)], duplexes [poly(dA).poly(dT), poly(rA).poly(dT), poly(rA).poly(rU), poly(dA).poly(rU), poly(dG).poly(dC), calf thymus], triplexes [poly(dA).2poly(dT), poly(rA).2poly(rU)], i-motif (polydC) and 16S A-site rRNA (SEQ ID No. 1). The amount of F-neo (42a) bound to each nucleic acid is shown as a bar graph in FIG. 13. Because all nucleic acids are dialyzed simultaneously in the same ligand solution, the amount of bound F-neo (42a) is directly proportional to its affinity for each nucleic acid. […] 200 μL of different nucleic acids (7.5 μM per monomeric unit of each polymer) was dialyzed for 72 h with 400 mL 100 nM ligand in 6 mM Na2HPO4, 2 mM NaH2PO4, 1 mM Na2EDTA, pH 7.0 and various Na+ concentrations as indicated.
The binding of F-neo (42a) to nucleic acids is affected by the salt concentration. […]

The test system of assay [4] is mutant mitochondria ribosomal A-site (SEQ ID NO. 4). The assay is described as follows: Quenching of F-neo by ribosomal A-site mimics, 96-well. The following applies: 0.1 μM RNA to 0.1 μM F-neo (42a); em 535 nm, ex 485 nm; ten wells averaged. As for the experimental part: Disclosed is an HTS showing the difference in the binding affinity of fluorescene-neomycin (F-neo (42a)) to various synthetic RNA sequence 27 bases long designed to mimic the ribosomal A-site using a 96 well plate format and a fluorescent plate reader. Differences in binding are determined by the differential quenching of F-neo (42a) upon binding to the RNA.
Following the SOP's established for F-neo (42a) binding to E. coli A-site, each sequence was added at 0.1 μM RNA to 0.1 μM F-neo (42a) using 100 reads/well using a Tecan Genios Pro plate reader in a 96 well Greiner black plate. The emission was measured at wavelength 535 nm, using an excitation wavelength of 485 nm. All experiments were performed in 10 mM hepes (7.0), 50 mM NaCl, and 0.4 mM EDTA.

[5] abbreviates: 50 mM NaCl, listed as Fluorescein-neomycin.
Where [6] appears, read: 50 mM NaCl, listed as fluorescein-neomycin.
Where [7] appears, read: 150 mM NaCl, listed as Fluorescein-neomycin.
[8] abbreviates: 150 mM NaCl, listed as fluorescein-neomycin.

On to `NCC1O[C@H](OC2C(O)C(OC3C(O)[C@H](N)CC(N)[C@H]3O[C@H]3OC(CN)[C@@H](O)C(O)C3N)O[C@@H]2CSCCNC(=O)CCSCC(=O)Nc2ccc(-c3c4ccc(=O)cc-4oc4cc(O)ccc34)c(C(=O)O)c2)C(N)C(O)[C@@H]1O` (stereo partly drawn) [F-neo (42a), Neomycin-Fluorescein Conjugate], for which the “ΔF (%) with 1rdr d(CCCCGGGG)2” value in assay [1] (setting [5]) worked out at 47.75 ± 5.60%; in assay [1] (setting [6]), 47%; in assay [1] (100 mM NaCl), 32.18 ± 0.42%; in assay [1] (setting [7]), 20.36 ± 2.76%; in assay [1] (setting [8]) it was 20%. Also, the “ΔF (%) with 1rdr d(GGGGCCCC)2” value in assay [2] (setting [5]) is 73.97 ± 5.78%; in assay [2] (setting [6]) it was 73%; in assay [2] (100 mM NaCl), 49.28 ± 1.12%; in assay [2] (setting [7]), 33.88 ± 3.33%; in assay [2] (setting [8]) it was 33%. The “decrease of amount bound for each nucleic acid structure” value in assay [3] is 4-5 times. In addition, the “fluorescence of F-neo with RNA” value in assay [4] is reported as 8515 (±230).
